Assay results: article PMC5064019, “Nicotinamide is an endogenous agonist for a C. elegans TRPV OSM-9 and OCR-4 channel” (Nature Communications, 2016)

Columns and labels:
Nan–Iav TRPV channel = target: T1, Nan–Iav TRPV channel (Drosophila melanogaster, UniProt Q9VUD5+Q9W3W0); experiment: two-electrode voltage clamp, Xenopus oocytes, Hill fit; format: cell-based; details: read-out: K1/2
T1 construct: iav cDNA in pCR4-TOPO, synthesized nan cDNA in pcDNA3.1; cRNAs co-injected in Xenopus oocytes; heteromeric channel
T1 sequence (Q9VUD5 1-833): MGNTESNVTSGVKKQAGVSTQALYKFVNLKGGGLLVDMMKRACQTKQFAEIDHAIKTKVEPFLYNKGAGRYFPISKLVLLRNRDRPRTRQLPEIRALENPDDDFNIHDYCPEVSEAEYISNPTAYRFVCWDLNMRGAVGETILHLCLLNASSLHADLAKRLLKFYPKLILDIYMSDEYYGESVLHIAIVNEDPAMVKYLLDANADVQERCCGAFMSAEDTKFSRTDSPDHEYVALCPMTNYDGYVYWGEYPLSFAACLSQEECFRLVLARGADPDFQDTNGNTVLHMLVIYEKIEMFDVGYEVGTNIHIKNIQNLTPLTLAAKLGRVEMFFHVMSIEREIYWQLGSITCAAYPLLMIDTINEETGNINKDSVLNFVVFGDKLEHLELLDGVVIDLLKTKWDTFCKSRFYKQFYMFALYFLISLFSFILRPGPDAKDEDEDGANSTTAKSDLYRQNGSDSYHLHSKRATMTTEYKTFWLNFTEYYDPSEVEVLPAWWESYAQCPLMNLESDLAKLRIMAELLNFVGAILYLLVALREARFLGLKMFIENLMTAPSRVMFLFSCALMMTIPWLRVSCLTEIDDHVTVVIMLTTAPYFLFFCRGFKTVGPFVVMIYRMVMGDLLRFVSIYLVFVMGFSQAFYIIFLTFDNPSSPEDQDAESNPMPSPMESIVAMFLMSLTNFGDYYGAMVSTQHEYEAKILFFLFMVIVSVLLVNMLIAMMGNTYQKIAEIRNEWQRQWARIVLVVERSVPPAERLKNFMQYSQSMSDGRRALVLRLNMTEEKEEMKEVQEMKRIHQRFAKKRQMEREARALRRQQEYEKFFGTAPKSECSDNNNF
T1 sequence (Q9W3W0 1-1123): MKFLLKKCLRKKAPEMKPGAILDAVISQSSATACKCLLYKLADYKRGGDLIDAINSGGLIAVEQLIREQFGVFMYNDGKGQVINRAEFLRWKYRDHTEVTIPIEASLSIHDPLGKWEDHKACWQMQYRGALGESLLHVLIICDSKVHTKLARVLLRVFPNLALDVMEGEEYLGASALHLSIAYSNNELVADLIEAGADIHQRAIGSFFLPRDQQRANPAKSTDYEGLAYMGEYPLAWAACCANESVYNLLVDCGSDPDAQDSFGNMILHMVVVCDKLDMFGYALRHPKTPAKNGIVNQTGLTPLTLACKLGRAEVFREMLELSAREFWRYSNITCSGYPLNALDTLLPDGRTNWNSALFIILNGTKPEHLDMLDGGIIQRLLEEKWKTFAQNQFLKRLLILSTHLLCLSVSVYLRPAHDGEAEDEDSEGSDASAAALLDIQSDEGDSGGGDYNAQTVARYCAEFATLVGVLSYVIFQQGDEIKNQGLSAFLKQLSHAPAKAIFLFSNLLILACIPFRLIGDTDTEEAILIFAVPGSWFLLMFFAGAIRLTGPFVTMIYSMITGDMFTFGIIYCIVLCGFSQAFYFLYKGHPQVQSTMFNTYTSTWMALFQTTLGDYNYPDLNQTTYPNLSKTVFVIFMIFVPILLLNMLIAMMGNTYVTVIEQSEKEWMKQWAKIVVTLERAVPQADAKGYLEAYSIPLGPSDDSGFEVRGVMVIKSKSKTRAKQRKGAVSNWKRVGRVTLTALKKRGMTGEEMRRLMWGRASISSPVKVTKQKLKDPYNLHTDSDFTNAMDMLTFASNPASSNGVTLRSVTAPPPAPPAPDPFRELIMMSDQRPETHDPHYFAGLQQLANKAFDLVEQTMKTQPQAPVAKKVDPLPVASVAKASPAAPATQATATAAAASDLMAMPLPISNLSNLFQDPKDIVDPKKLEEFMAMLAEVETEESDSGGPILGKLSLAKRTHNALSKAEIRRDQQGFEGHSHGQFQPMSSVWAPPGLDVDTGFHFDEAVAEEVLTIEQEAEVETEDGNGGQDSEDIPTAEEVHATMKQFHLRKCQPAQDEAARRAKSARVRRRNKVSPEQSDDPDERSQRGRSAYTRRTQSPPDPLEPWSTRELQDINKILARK

OSM-9–OCR-4 TRPV channel = target: T2, OSM-9–OCR-4 TRPV channel (Caenorhabditis elegans, UniProt G5EBV8+Q9N3Y9); experiment: as above; format: cell-based; details: read-out: K1/2
T2 construct: untagged cDNAs (osm-9 in pGEMHE, ocr-4 in pOX); cRNAs co-injected in Xenopus oocytes; heterotetramer, likely 2:2
T2 sequence (G5EBV8 1-937): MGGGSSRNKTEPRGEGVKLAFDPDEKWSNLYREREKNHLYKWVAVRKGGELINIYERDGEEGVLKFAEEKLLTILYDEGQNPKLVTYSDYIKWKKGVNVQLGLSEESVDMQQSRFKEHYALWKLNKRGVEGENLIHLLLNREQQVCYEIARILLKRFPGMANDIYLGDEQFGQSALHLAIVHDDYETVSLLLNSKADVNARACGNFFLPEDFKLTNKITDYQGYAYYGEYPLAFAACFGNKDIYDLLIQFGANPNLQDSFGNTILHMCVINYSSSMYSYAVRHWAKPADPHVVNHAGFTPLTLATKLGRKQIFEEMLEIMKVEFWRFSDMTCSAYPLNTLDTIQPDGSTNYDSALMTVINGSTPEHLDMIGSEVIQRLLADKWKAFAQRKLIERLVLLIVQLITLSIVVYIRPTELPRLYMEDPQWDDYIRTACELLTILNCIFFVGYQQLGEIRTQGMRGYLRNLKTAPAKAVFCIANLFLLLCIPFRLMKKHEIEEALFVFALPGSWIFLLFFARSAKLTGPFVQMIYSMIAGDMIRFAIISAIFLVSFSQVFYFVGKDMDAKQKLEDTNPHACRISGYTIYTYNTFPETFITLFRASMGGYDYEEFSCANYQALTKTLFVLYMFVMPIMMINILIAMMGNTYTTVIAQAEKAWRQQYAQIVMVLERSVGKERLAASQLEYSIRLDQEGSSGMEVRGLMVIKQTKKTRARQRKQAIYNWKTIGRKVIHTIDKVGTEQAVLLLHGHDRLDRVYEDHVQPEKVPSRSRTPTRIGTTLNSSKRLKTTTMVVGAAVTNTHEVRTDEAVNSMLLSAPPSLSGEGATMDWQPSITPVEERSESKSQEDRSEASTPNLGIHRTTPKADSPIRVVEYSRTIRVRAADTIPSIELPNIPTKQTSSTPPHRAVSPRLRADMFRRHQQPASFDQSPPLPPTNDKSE
T2 sequence (Q9N3Y9 1-756): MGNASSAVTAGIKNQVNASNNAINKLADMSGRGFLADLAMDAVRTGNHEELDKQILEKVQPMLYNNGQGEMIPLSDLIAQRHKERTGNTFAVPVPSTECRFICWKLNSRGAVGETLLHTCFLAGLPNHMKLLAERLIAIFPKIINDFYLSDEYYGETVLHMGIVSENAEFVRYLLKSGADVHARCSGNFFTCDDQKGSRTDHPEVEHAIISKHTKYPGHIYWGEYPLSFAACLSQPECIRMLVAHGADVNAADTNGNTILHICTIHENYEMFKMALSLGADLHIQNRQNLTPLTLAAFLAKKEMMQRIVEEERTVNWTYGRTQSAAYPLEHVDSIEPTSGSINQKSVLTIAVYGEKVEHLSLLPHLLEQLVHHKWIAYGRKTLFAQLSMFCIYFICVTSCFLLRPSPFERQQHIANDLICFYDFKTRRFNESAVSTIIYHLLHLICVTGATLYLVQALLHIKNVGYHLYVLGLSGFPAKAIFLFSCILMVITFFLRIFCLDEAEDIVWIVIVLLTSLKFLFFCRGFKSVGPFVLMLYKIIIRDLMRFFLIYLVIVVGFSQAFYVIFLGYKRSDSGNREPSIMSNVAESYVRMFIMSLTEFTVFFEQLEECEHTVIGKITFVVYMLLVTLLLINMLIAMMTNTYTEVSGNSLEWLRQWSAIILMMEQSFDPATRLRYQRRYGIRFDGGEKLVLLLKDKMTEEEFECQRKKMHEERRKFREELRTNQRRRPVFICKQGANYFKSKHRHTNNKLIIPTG

NC(=O)c1cccnc1 [nicotinamide]
EC50 (Nan–Iav TRPV channel): 14.4 ± 1 µM | EC50 (OSM-9–OCR-4 TRPV channel): 63.3 ± 13.2 µM
